From patent US20140206682A1, “COMPOUNDS AND COMPOSITIONS AS PDGFR KINASE INHIBITORS” (NOVARTIS PHARMACEUTICALS UK LIMITED, priority 2011, published 2014)

System: PDGFR
Assay: Rat A10 cell proliferation assay
Assay type: cell-based
Conditions: Table 1; Rat A10 cells, recombinant rat PDGF-BB, CellTiter-Glo after 68 hours
Procedure: Compounds of Formula (I) provided herein were assayed to measure their capacity to inhibit c-kit and PDGFR kinases using the appropriate assay described below: c-Kit inhibition was evaluated using the Mo7e cell proliferation assay, and PDGFR inhibition was evaluated using the Rat A10 cell proliferation assay and the Human TG/HA-VSMC cell proliferation assay.
Rat A10 cells (ATCC) were resuspended in DMEM supplemented with 1% FBS and 10 ng/mL recombinant rat PDGF-BB at 20,000 cells/mL. The cells were aliquoted into 384 well plates at 50 μL/well and incubated for 4 hours at 37° C. 0.5 μL of test compound 3-fold serially diluted in DMSO was added to each well. The plates were returned to the incubator for a further 68 hours. 25 μL of CellTiter-Glo (Promega) was added to each well and the plates were incubated on the bench for 15 minutes. Luminescence was then read using a CLIPR CCD camera (Molecular Devices).

| SMILES | IC50 [nM] |
| --- | --- |
| O=C(NCC(O)c1ccccc1Cl)c1ccc(F)c(NC(=O)c2cnc3ccccn23)c1 (stereo not drawn) [F120, N-(5-{[2-(2-chlorophenyl)-2-hydroxyethyl]carbamoyl}-2-fluorophenyl)imidazo[1,2-a]pyridine-3-carboxamide] | 36 |
| O=C(NC[C@@H](O)c1ccccc1F)c1ccc(F)c(NC(=O)c2cnc3ccccn23)c1 [F122, N-(2-fluoro-5-{[(2S)-2-(2-fluorophenyl)-2-hydroxyethyl]carbamoyl}phenyl)imidazo[1,2-a]pyridine-3-carboxamide] | 60 |
| O=C(N[C@H]1CCCC[C@@H]1O)c1ccc(F)c(NC(=O)c2cnc3ccccn23)c1 [F9, N-(2-fluoro-5-{[(1S,2S)-2-hydroxycyclohexyl]carbamoyl}phenyl)imidazo[1,2-a]pyridine-3-carboxamide] | 70 |
| CN(C)CCCOc1ccc(-c2ccn3c(C(=O)Nc4cc(C(=O)NC5Cc6ccccc6C5O)ccc4F)cnc3c2)cn1 (stereo not drawn) [F13, 7-{6-[3-(dimethylamino)propoxy]pyridin-3-yl}-N-{2-fluoro-5-[(1-hydroxy-2,3-dihydro-1H-inden-2-yl)carbamoyl]phenyl}imidazo[1,2-a]pyridine-3-carboxamide] | 56 |
| O=C(N[C@H](CO)c1ccccc1)c1ccc(F)c(NC(=O)c2cnc3ccccn23)c1 [F112, N-(2-fluoro-5-{[(1S)-2-hydroxy-1-phenylethyl]carbamoyl}phenyl)imidazo[1,2-a]pyridine-3-carboxamide] | 76 |
| Cc1ccc2ncc(C(=O)Nc3cc(C(=O)N[C@@H]4c5cc(Cl)ccc5C[C@@H]4O)ccc3F)n2c1 (stereo in doubt) [F33, N-(5-{[(1R,2S)-6-chloro-2-hydroxy-2,3-dihydro-1H-inden-1-yl]carbamoyl}-2-fluorophenyl)-6-methylimidazo[1,2-a]pyridine-3-carboxamide] | 163 |
| Cc1ccn2c(C(=O)Nc3cc(C(=O)N[C@@H]4c5ccccc5C[C@@H]4O)ccc3F)cnc2c1 [F26, N-(2-fluoro-5-{[(1R,2S)-2-hydroxy-2,3-dihydro-1H-inden-1-yl]carbamoyl}phenyl)-7-methylimidazo[1,2-a]pyridine-3-carboxamide] | 49 |
| Cc1ccc2ncc(C(=O)Nc3cc(C(=O)N[C@@H]4c5ccccc5C[C@@H]4O)ccc3F)n2c1 [F17, N-(2-fluoro-5-{[(1R,2S)-2-hydroxy-2,3-dihydro-1H-inden-1-yl]carbamoyl}phenyl)-6-methylimidazo[1,2-a]pyridine-3-carboxamide] | 60 |
| Cc1ccn2c(C(=O)Nc3cc(C(=O)N[C@@H](CO)[C@@H](O)c4ccccc4)ccc3F)cnc2c1 [F127, N-(5-{[(1S,2S)-1,3-dihydroxy-1-phenylpropan-2-yl]carbamoyl}-2-fluorophenyl)-7-methylimidazo[1,2-a]pyridine-3-carboxamide] | 86 |
| Cn1nccc1-c1ccn2c(C(=O)Nc3cc(C(=O)N[C@@H](CO)[C@@H](O)c4ccccc4)ccc3F)cnc2c1 [F128, N-(5-{[(1S,2S)-1,3-dihydroxy-1-phenylpropan-2-yl]carbamoyl}-2-fluorophenyl)-7-(1-methyl-1H-pyrazol-5-yl)imidazo[1,2-a]pyridine-3-carboxamide] | 56 |
| O=C(NC(CO)c1ccccc1)c1ccc(F)c(NC(=O)c2cnc3ccccn23)c1 (stereo not drawn) [F4, N-{2-fluoro-5-[(2-hydroxy-1-phenylethyl)carbamoyl]phenyl}imidazo[1,2-a]pyridine-3-carboxamide] | 89 |
| O=C(N[C@H]1c2ccccc2C[C@H]1O)c1ccc(F)c(NC(=O)c2cnc3ccccn23)c1 [F6, N-(2-fluoro-5-{[(1S,2R)-2-hydroxy-2,3-dihydro-1H-inden-1-yl]carbamoyl}phenyl)imidazo[1,2-a]pyridine-3-carboxamide] | 86 |
| O=C(N[C@@H]1c2ccccc2OC[C@@H]1O)c1ccc(F)c(NC(=O)c2cnc3ccccn23)c1 (racemic) [F34, N-(2-fluoro-5-{[(3R,4R)-3-hydroxy-3,4-dihydro-2H-1-benzopyran-4-yl]carbamoyl}phenyl)imidazo[1,2-a]pyridine-3-carboxamide] | 195 |

Same assay, conditions: Table 2; Rat A10 cells, recombinant rat PDGF-BB, CellTiter-Glo after 68 hours

| SMILES | IC50 [nM] |
| --- | --- |
| O=C(N[C@@H]1c2ccccc2C[C@@H]1O)c1ccc(F)c(NC(=O)c2cnc3ccc(N4CCOCC4)cn23)c1 (stereo in doubt) [F54, N-(2-fluoro-5-{[(1R,2S)-2-hydroxy-2,3-dihydro-1H-inden-1-yl]carbamoyl}phenyl)-6-(morpholin-4-yl)imidazo[1,2-a]pyridine-3-carboxamide] | 477 |
| O=C(NCC1(CO)CCCC1)c1ccc(F)c(NC(=O)c2cnc3ccccn23)c1 [F90, N-(2-fluoro-5-({[1-(hydroxymethyl)cyclopentyl]methyl}carbamoyl)phenyl]imidazo[1,2-a]pyridine-3-carboxamide] | 1760 |
| C[C@@H](CO)NC(=O)c1cccc(NC(=O)c2cnc3ccccn23)c1 [F78, N-(3-{[(2S)-1-hydroxypropan-2-yl]carbamoyl}phenyl)imidazo[1,2-a]pyridine-3-carboxamide] | > 10000 |
| CC(C)[C@H](CO)NC(=O)c1cccc(NC(=O)c2cnc3ccccn23)c1 [F80, N-(3-{[(2R)-1-hydroxy-3-methylbutan-2-yl]carbamoyl}phenyl)imidazo[1,2-a]pyridine-3-carboxamide] | > 10000 |
| [2H]c1c([2H])c([2H])n2c(C(=O)Nc3cc(C(=O)N[C@H]4c5ccccc5C[C@H]4O)ccc3F)cnc2c1[2H] [F55, N-(2-fluoro-5-{[(1S,2R)-2-hydroxy-2,3-dihydro-1H-inden-1-yl]carbamoyl}phenyl)-5,6,7,8-tetrahydrogenioimidazo[1,2-a]pyridine-3-carboxamide] | 484 |
| O=C(NCC1(O)CCC1)c1ccc(F)c(NC(=O)c2cnc3ccccn23)c1 [F91, N-(2-fluoro-5-{[(1-hydroxycyclobutyl)methyl]carbamoyl}phenyl)imidazo[1,2-a]pyridine-3-carboxamide] | 1740 |
| Cc1ccc2ncc(C(=O)Nc3cc(C(=O)N[C@@H]4c5cc(F)ccc5C[C@@H]4O)c(C)cc3F)n2c1 [F89, N-(2-fluoro-5-{[(1R,2S)-6-fluoro-2-hydroxy-2,3-dihydro-1H-inden-1-yl]carbamoyl}-4-methylphenyl)-6-methylimidazo[1,2-a]pyridine-3-carboxamide] | 1810 |
| O=C(N[C@@H]1CCC[C@H]1O)c1ccc(F)c(NC(=O)c2cnc3ccccn23)c1 [F75, N-(2-fluoro-5-{[(1R,2R)-2-hydroxycyclopentyl]carbamoyl}phenyl)imidazo[1,2-a]pyridine-3-carboxamide] | 3840 |
| O=C(N[C@H]1CCCCC1O)c1cccc(NC(=O)c2cnc3ccccn23)c1 (stereo in doubt) [F67, N-(3-{[(1S,2S)-2-hydroxycyclohexyl]carbamoyl}phenyl)imidazo[1,2-a]pyridine-3-carboxamide] | 1360 |
| O=C(N[C@@H]1Cc2ccccc2[C@@H]1O)c1ccc(F)c(NC(=O)c2cnc3ccccn23)c1 [F38, N-(2-fluoro-5-{[(1S,2R)-1-hydroxy-2,3-dihydro-1H-inden-2-yl]carbamoyl}phenyl)imidazo[1,2-a]pyridine-3-carboxamide] | 248 |
| O=C(N[C@@H]1c2ccccc2C[C@@H]1O)c1ccc(F)c(NC(=O)c2cnc3ccc(COCC(F)(F)F)cn23)c1 (stereo in doubt) [F61, N-(2-fluoro-5-{[(1R,2S)-2-hydroxy-2,3-dihydro-1H-inden-1-yl]carbamoyl}phenyl)-6-[(2,2,2-trifluoroethoxy)methyl]imidazo[1,2-a]pyridine-3-carboxamide] | 618 |
| O=C(NC12C[C@@H]3C[C@@H](CC(O)(C3)C1)C2)c1ccc(F)c(NC(=O)c2cnc3ccccn23)c1 [F52, N-(2-fluoro-5-{[(5R,7S)-3-hydroxyadamantan-1-yl]carbamoyl}phenyl)imidazo[1,2-a]pyridine-3-carboxamide] | 422 |
| O=C(N[C@H]1CC[C@@H](O)CC1)c1ccc(F)c(NC(=O)c2cnc3ccccn23)c1 [F104, N-{2-fluoro-5-[(4-hydroxycyclohexyl)carbamoyl]phenyl}imidazo[1,2-a]pyridine-3-carboxamide] | > 10000 |
| O=C(N[C@H]1c2ccccc2C[C@H]1O)c1cccc(NC(=O)c2cnc3ccccn23)c1 [F68, N-(3-{[(1S,2R)-2-hydroxy-2,3-dihydro-1H-inden-1-yl]carbamoyl}phenyl)imidazo[1,2-a]pyridine-3-carboxamide] | 1520 |
| O=C(NC1Cc2ccccc2C1O)c1ccc(F)c(NC(=O)c2cnc3ccccn23)c1 (stereo not drawn) [F53, N-{2-fluoro-5-[(1-hydroxy-2,3-dihydro-1H-inden-2-yl)carbamoyl]phenyl}imidazo[1,2-a]pyridine-3-carboxamide] | 433 |
| O=C(N[C@H]1CCC[C@H]1O)c1ccc(F)c(NC(=O)c2cnc3ccccn23)c1 [F74, N-(2-fluoro-5-{[(1S,2R)-2-hydroxycyclopentyl]carbamoyl}phenyl)imidazo[1,2-a]pyridine-3-carboxamide] | 3480 |
| O=C(N[C@H]1CC[C@H](O)CC1)c1ccc(F)c(NC(=O)c2cnc3ccccn23)c1 [F93, N-{2-fluoro-5-[(4-hydroxycyclohexyl)carbamoyl]phenyl}imidazo[1,2-a]pyridine-3-carboxamide] | 1140 |
| O=C(NC(CO)c1ccccc1)c1cccc(NC(=O)c2cnc3ccccn23)c1 (stereo not drawn) [F65, N-{3-[(2-hydroxy-1-phenylethyl)carbamoyl]phenyl}imidazo[1,2-a]pyridine-3-carboxamide] | 1110 |
| O=C(NCC1(O)CCCCC1)c1cccc(NC(=O)c2cnc3ccccn23)c1 [F64] | 1100 |
| O=C(N[C@@H]1c2ccccc2C[C@@H]1O)c1cccc(NC(=O)c2cnc3ccccn23)c1 (stereo in doubt) [F47, N-(3-{[(1R,2S)-2-hydroxy-2,3-dihydro-1H-inden-1-yl]carbamoyl}phenyl)imidazo[1,2-a]pyridine-3-carboxamide] | 356 |
